In patent US20220313717A1, “METHODS OF TREATING CRYPTOCOCCUS INFECTIONS” (MATINAS BIOPHARMA NANOTECHNOLOGIES, INC., priority 2019, published 2022):
Values belong to the compound of their own block, whether it stands above or below them.

How the values were obtained:
[1] = tested on: Cryptococcus spp.; settings: in vivo, cited from earlier work
[2] = biological target: CYP2C9 (Homo sapiens, UniProt P11712); settings: cited from earlier work
[3] = biological target: CYP3A4 (Homo sapiens, UniProt P08684); settings: cited from earlier work
[4] = tested on: Cryptococcus spp.; settings: cited from earlier work
[5] = Participant subjective impressions of cAMB versus prior IV AMB (qualitative scale, visual analog); set-up: species or system human; settings: recall of prior IV therapy (6/24)
Method: Trial endpoints included: 1) Proportion of daily dose received and tolerated without vomiting within 30 minutes; 2) Cumulative score of nausea, vomiting, diarrhea by Common Terminology Criteria AE (CTCAE) grade scoring criteria (U.S. Department of Health and Human Services NIoH, National Cancer Institute, 2017, Common Terminology Criteria for Adverse Events (CTCAE) v 5.0); 3) Incidence of adverse events (AEs) by National Institute of Allergy and Infectious Diseases (NIAID) Division of AIDS (DAIDS) toxicity scale (version 2017) for Grade 1-5 or serious AEs (SAE) (U.S. Department of Health and Human Services NIoH, National Institute of Allergy and Infectious Diseases, Division of AIDS, 2017, Division of AIDS (DAIDS) Table for Grading the Severity of Adult and Pediatric Adverse Events, Corrected Version 2.1.); 4) Participant subjective impression(s) of cAMB by visual analog and other scales. All clinical and laboratory AEs were followed up until resolution.
Statistical analyses were primarily descriptive. The median and interquartile ranges or the number and proportions were reported where appropriate. Area under the curve (AUC) calculations were made using a linear trapezoidal method with statistical comparison by ANOVA. […]
Using a qualitative scale, we assessed participant impressions of their cAMB experience versus their prior IV AMB experience in the Phase 1A cohort.

Chain of CYP3A4 (P08684 whole entry): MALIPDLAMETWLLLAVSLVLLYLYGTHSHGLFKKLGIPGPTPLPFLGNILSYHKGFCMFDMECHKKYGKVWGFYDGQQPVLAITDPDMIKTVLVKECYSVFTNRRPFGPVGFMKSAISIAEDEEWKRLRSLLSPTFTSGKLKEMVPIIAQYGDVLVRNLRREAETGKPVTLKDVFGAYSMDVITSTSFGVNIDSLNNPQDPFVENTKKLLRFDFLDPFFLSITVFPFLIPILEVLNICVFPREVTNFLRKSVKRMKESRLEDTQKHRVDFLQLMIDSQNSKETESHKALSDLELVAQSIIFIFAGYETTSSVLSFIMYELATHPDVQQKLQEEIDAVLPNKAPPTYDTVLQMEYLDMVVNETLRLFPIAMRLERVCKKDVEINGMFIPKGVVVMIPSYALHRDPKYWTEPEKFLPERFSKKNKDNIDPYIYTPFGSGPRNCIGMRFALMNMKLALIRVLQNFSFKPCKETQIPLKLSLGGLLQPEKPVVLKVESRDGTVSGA
Chain of CYP2C9 (P11712 whole entry): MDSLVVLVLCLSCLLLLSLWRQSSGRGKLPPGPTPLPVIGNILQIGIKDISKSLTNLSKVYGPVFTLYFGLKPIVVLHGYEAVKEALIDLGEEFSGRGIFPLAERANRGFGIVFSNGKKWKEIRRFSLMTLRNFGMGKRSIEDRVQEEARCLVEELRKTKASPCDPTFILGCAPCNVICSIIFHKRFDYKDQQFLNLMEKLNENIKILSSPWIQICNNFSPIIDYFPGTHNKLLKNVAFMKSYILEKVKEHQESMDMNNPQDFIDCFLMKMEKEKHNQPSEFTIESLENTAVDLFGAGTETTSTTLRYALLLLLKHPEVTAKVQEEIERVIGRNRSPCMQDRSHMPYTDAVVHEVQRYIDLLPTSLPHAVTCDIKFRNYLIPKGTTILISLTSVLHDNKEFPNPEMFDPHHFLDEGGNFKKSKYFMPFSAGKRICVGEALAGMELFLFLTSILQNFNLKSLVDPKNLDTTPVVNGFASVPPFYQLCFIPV

Structure (SMILES): OC(Cn1cnnn1)(c1ccc(F)cc1F)C(F)(F)c1ccc(-c2ccc(OCC(F)(F)F)cc2)cn1 (stereo not drawn) [VT-1129]
fungicidal activity in mouse models of Cryptococcus spp. infection [1]: fungicidal
CNS penetration ([1]; mouse): good CNS penetration

Structure (SMILES): OC(Cn1cncn1)(Cn1cncn1)c1ccc(F)cc1F [Fluconazole, fluconazole]
CYP2C9 inhibition [2]: potent CYP2C9 inhibitor
CYP3A4 inhibition [3]: moderate CYP3A4 inhibitor

Structure (SMILES): Nc1ncccc1-c1cc(Cc2ccc(COc3ccccn3)cc2)no1 [E1210]
in vitro activity against Cryptococcus spp. [4]: has in vitro activity against Cryptococcus spp.

participants who recalled severe nausea [5]: 25%
Structure (SMILES): C[C@@H]1[C@H](O)[C@@H](C)/C=C/C=C/C=C/C=C/C=C/C=C/C=C/[C@H](O[C@@H]2O[C@H](C)[C@@H](O)[C@H](N)[C@@H]2O)C[C@@H]2O[C@](O)(C[C@@H](O)C[C@@H](O)[C@H](O)CC[C@@H](O)C[C@@H](O)CC(=O)O[C@H]1C)C[C@H](O)[C@H]2C(=O)O [IV AMB, amphotericin B]
